{
  "source": "paper PMC8153121",
  "about": "“N-Alkylation of Anthracycline Antibiotics by Natural Sesquiterpene Lactones as a Way to Obtain Antitumor Agents with Reduced Side Effects” (Biomedicines, 2021)",
  "key": {"MCF7 (breast cancer)": {"test_system": "MCF7 (breast cancer)", "test": "MTT cell viability test, MCF7", "type": "cell-based, Human", "conditions": "MTT, 72 h, read-out: IC50, MCF7", "protocol": "(§1) Human cell cultures of tumor origin (A549 (lung carcinoma), HCT116 (colon adenocarcinoma), MCF7 (breast cancer), RD (embryonic rhabdomyosarcoma)), and the line of non-transformed cells HEK293 (embryonic kidney) provided by the Laboratory of Tumor Cell Genetics at the N.N. Blokhin Russian Cancer Research Institute, as well as by the Institute of Cytology of the Russian Academy of Sciences, were grown in DMEM (Gibco, Scotland, UK) and MEM (Gibco, Scotland, UK) containing fetal calf serum (10% by volume) (ThermoFisher Scientific, Paisley, UK), L-glutamine (2 mM) (Gibco, Scotland, UK), and penicillin-streptomycin (1% by volume) (PanEco, Moscow, Russia).\n(§2) Cellular viability was determined by the MTT test. […] After 24 h of incubation, various concentrations of the test compounds dissolved in DMSO (≤1%) were added to the cell cultures, the solvent was added to the control wells in an equal volume, and then the cells were cultured under the same conditions for 72 h. After the incubation time, MTT (3-(4,5-dimethylthiazol-2-yl)-2,5-diphenyltetrazolium bromide, 5 mg/mL) was added to each well, and the plates were further incubated for 2 h (until a characteristic color appeared). Then, the formazan granules were dissolved in DMSO.\n(§3) Using a plate analyzer (Cytation3, BioTech Instruments Inc., USA), the optical density was determined at λ = 530 nm."}, "[1]": {"test_system": "RD (embryonic rhabdomyosarcoma)", "test": "MTT cell viability test, RD", "type": "cell-based, Human", "conditions": "MTT, 72 h, read-out: IC50, RD", "protocol": "as §1, §2, §3"}, "[2]": {"test_system": "HEK293 (embryonic kidney)", "test": "MTT cell viability test, non-transformed HEK293", "type": "cell-based, Human", "conditions": "MTT, 72 h, non-transformed cells, read-out: IC50, HEK293", "protocol": "as §1, §2, §3"}, "A549 (lung carcinoma)": {"test_system": "A549 (lung carcinoma)", "test": "MTT cell viability test, A549", "type": "cell-based, Human", "conditions": "MTT, 72 h, read-out: IC50, A549", "protocol": "as §1, §2, §3"}, "[3]": {"target": "T1, cytochrome-c-oxidase complex of the mitochondrial respiratory chain (IV) (Rattus norvegicus, UniProt P00406+P05503+P05505)", "T1 construct": "Rat heart mitochondria were isolated by differential centrifugation; from tissue; host or cells: rat heart mitochondria", "T1 sequence (P00406 whole entry, other chains not shown)": "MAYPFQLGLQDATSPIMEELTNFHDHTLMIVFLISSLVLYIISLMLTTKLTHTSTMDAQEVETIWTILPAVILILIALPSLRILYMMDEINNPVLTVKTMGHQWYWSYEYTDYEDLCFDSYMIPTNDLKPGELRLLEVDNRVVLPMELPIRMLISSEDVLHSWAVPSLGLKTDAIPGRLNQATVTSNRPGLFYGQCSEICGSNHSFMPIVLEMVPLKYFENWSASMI", "T1 sequence (P05505 whole entry, other chains not shown)": "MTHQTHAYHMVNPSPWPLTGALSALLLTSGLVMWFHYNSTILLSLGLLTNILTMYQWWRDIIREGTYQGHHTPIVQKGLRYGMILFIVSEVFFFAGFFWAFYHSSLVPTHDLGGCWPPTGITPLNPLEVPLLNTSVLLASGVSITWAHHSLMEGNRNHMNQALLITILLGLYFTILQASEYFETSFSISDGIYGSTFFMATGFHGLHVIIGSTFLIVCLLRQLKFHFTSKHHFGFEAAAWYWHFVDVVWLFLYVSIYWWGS", "test": "Respiratory chain complex IV, OCR of isolated rat heart mitochondria (Seahorse)", "type": "biochemical", "conditions": "isolated rat heart mitochondria 10 μg/well, compounds at 30 μM", "protocol": "(§4) Rat heart mitochondria were isolated by differential centrifugation using ice-cold buffer containing KCl (120 mM) and HEPES (20 mM), pH = 7.4, and a trypsin inhibitor. The mitochondrial yield ranged from 5 to 10 mg/mL of protein in the heart sediment. Mitochondria were stored in plastic containers at 4 °C.\n(§5) The effect of the compounds on the functioning of the electron transport chain complexes was carried out using an Agilent Seahorse XF96e Analyzer (Seahorse Bioscience, Billerica, MA, USA) according to their ability to change the rate of oxygen uptake by isolated rat heart mitochondria (10 μg/well). The following modulators were used: activators of complex I of the electron transport chain, NADH dehydrogenase,—glutamate/malate; rotenone (2 μM) (Sigma Aldrich, Saint Louis, USA)—a tissue respiration blocker that stops the transfer of electrons from the reduced form of NADH to cytochrome b, was used as complex I inhibitor; potassium succinate ([…]) (Dia-M, Moscow, Russia), which is a substrate of complex II of the electron transport chain, made it possible to assess mitochondrial respiration mediated by succinate dehydrogenase; complex III (ubiquinol-cytochrome c-oxidoreductase) inhibitor—a blocker of cellular respiration antimycin A (Sigma Aldrich, Saint Louis, USA), as well as ascorbate/TMPD (0.5 μM) (Sigma Aldrich, Saint Louis, USA), allowed us to evaluate the cytochrome-c-oxidase mediated respiration of organelles."}, "[4]": {"test_system": "HCT116 (colon adenocarcinoma)", "test": "MTT cell viability test, HCT116", "type": "cell-based, Human", "conditions": "MTT, 72 h, read-out: IC50, HCT116", "protocol": "as §1, §2, §3"}, "rat heart mitochondria": {"test_system": "rat heart mitochondria", "test": "Mitochondrial swelling", "type": "biochemical", "conditions": "rat heart mitochondria 0.5 mg/mL, compounds at 100 μM, Ca2+ 25 μM", "protocol": "as §4\nMitochondrial swelling was recorded by the light transmission of the rat heart mitochondrial suspension at λ = 540 nm using a Victor 3 plate analyzer (Perkin Elmer, Germany). The swelling rate was estimated as △A540/min and was calculated as the tangent of the angle of the steepest dependence curve part △A540 versus time."}, "[5]": {"target": "T2, complex II of the electron transport chain (Rattus norvegicus, UniProt P21913+Q641Z9+Q6PCT8+Q920L2)", "T2 construct": "Rat heart mitochondria were isolated by differential centrifugation; from tissue; host or cells: rat heart mitochondria", "T2 sequence (Q920L2 35-656)": "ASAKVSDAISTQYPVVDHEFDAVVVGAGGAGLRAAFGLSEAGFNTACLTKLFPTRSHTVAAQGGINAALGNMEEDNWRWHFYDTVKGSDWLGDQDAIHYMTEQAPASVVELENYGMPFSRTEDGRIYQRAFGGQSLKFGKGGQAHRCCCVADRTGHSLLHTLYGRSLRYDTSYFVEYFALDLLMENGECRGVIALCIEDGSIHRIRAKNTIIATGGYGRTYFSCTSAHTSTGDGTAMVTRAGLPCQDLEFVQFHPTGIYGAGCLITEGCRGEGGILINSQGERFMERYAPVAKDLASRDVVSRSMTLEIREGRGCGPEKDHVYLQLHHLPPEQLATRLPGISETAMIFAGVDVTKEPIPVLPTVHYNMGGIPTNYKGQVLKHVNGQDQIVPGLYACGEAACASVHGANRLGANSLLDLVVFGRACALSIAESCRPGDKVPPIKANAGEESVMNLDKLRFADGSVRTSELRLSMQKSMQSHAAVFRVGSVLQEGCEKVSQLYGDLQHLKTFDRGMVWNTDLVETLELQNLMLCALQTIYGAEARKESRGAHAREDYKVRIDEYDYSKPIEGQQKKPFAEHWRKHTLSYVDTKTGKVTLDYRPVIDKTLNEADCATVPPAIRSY", "T2 sequence (P21913 31-282)": "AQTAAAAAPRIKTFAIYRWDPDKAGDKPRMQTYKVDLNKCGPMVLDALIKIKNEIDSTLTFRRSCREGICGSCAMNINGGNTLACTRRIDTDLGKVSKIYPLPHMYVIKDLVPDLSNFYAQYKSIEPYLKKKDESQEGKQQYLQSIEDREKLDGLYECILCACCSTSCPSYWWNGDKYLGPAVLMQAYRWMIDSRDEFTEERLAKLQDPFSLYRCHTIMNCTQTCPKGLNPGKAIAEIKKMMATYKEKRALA", "T2 sequence (Q641Z9 30-169 limits assumed)": "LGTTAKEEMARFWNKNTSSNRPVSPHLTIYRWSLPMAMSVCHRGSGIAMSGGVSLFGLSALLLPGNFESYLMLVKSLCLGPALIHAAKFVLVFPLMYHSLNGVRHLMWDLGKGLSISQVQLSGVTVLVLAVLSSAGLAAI", "T2 sequence (Q6PCT8 57-159)": "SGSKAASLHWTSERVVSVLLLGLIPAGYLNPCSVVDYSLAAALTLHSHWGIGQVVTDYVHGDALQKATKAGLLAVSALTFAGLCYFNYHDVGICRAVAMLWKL", "test": "Respiratory chain complex II, OCR of isolated rat heart mitochondria (Seahorse)", "type": "biochemical", "conditions": "isolated rat heart mitochondria 10 μg/well, compounds at 30 μM", "protocol": "as §4, §5"}},
  "note": "Like-named read-outs stand apart in the source and are kept apart here.",
  "data": [
    {"smiles": "COc1cccc2c1C(=O)c1c(O)c3c(c(O)c1C2=O)C[C@@](O)(C(C)=O)C[C@@H]3O[C@H]1C[C@H](NC[C@H]2C(=O)O[C@@H]3C[C@@]4(C)CCC=C(C)C4=C[C@@H]32)[C@H](O)[C@H](C)O1", "values": [
      {"measurement": "melting point", "result": "152 to 158", "unit": "°C"}
    ]},
    {"smiles": "COc1cccc2c1C(=O)c1c(O)c3c(c(O)c1C2=O)CC(O)(C(=O)CO)CC3OC1CC(NCC2C(=O)OC3CC4(C)CCCC5(C)OC45CC32)C(O)C(C)O1", "note": "(mixture of isomers) [Compound 6a]", "values": [
      {"measurement": "IC50", "setting": "MCF7 (breast cancer)", "result": "2.94 ± 0.02", "unit": "µM"},
      {"measurement": "IC50", "setting": "[1]", "result": "1.18 ± 0.01", "unit": "µM"},
      {"measurement": "IC50", "setting": "[2]", "result": "0.98 ± 0.23", "unit": "µM"},
      {"measurement": "IC50", "setting": "A549 (lung carcinoma)", "result": "0.88 ± 0.11", "unit": "µM"},
      {"measurement": "Work of Respiratory Chain Complexes, % Decrease in OCR of Control, IV", "setting": "[3]", "result": "40.50 ± 4.05", "unit": "%"},
      {"measurement": "IC50", "setting": "[4]", "result": "0.25 ± 0.04", "unit": "µM"},
      {"measurement": "Mitochondrial Swelling, % of Ca2+-Induced Swelling", "setting": "rat heart mitochondria", "result": "54.22 ± 5.49", "unit": "%"}
    ]},
    {"smiles": "COc1cccc2c1C(=O)c1c(O)c3c(c(O)c1C2=O)CC(O)(C(C)=O)CC3OC1CC(NCC2C(=O)OC3CC4(C)CCCC5(C)OC45CC32)C(O)C(C)O1", "note": "(mixture of isomers) [Compound 6b]", "values": [
      {"measurement": "Work of Respiratory Chain Complexes, % Decrease in OCR of Control, II", "setting": "[5]", "result": "26.74 ± 4.56", "unit": "%"},
      {"measurement": "IC50", "setting": "MCF7 (breast cancer)", "result": "1.47 ± 0.04", "unit": "µM"},
      {"measurement": "IC50", "setting": "[1]", "result": "0.41 ± 0.02", "unit": "µM"},
      {"measurement": "IC50", "setting": "[2]", "result": "3.68 ± 0.16", "unit": "µM"},
      {"measurement": "IC50", "setting": "A549 (lung carcinoma)", "result": "0.56 ± 0.01", "unit": "µM"},
      {"measurement": "Work of Respiratory Chain Complexes, % Decrease in OCR of Control, IV", "setting": "[3]", "result": "41.69 ± 2.13", "unit": "%"},
      {"measurement": "IC50", "setting": "[4]", "result": "0.26 ± 0.01", "unit": "µM"},
      {"measurement": "Mitochondrial Swelling, % of Ca2+-Induced Swelling", "setting": "rat heart mitochondria", "result": "— (“—” indicates activity absence for compounds (≤10%) in a particular test)"}
    ]},
    {"smiles": "C=C1CCC[C@]2(C)C[C@H]3OC(=O)C(=C)[C@H]3CC12", "note": "(stereo partly drawn) [Compound 1, isoalantholactone, reference compound]", "values": [
      {"measurement": "IC50", "setting": "MCF7 (breast cancer); Homo sapiens, MCF7, 72 h", "result": "17.5 ± 0.6", "unit": "µM"},
      {"measurement": "IC50", "setting": "[1]; Homo sapiens", "result": "10.4 ± 0.79", "unit": "µM"},
      {"measurement": "IC50", "setting": "[2]; Homo sapiens, HEK293, 72 h", "result": "74.03 ± 0.51", "unit": "µM"},
      {"measurement": "IC50", "setting": "A549 (lung carcinoma); Homo sapiens, A549, 72 h", "result": "32 ± 3.24", "unit": "µM"},
      {"measurement": "IC50", "setting": "[4]; Homo sapiens, HCT-116, 72 h", "result": "11.3 ± 0.27", "unit": "µM"}
    ]},
    {"smiles": "C=C1CCCC2(C)CC3OC(=O)C(CNC4CC(OC5CC(O)(C(=O)CO)Cc6c(O)c7c(c(O)c65)C(=O)c5c(OC)cccc5C7=O)OC(C)C4O)C3CC12", "note": "(stereo not drawn) [Compound 1a]", "values": [
      {"measurement": "Work of Respiratory Chain Complexes, % Decrease in OCR of Control, II", "setting": "[5]", "result": "27.61 ± 5.71", "unit": "%"},
      {"measurement": "IC50", "setting": "MCF7 (breast cancer)", "result": "11.1 ± 0.17", "unit": "µM"},
      {"measurement": "IC50", "setting": "[1]", "result": "2.41 ± 0.03", "unit": "µM"},
      {"measurement": "IC50", "setting": "[2]", "result": "19.8 ± 0.42", "unit": "µM"},
      {"measurement": "IC50", "setting": "A549 (lung carcinoma)", "result": "2.21 ± 0.06", "unit": "µM"},
      {"measurement": "Work of Respiratory Chain Complexes, % Decrease in OCR of Control, IV", "setting": "[3]", "result": "24.52 ± 7.61", "unit": "%"},
      {"measurement": "IC50", "setting": "[4]", "result": "2.81 ± 0.05", "unit": "µM"},
      {"measurement": "Mitochondrial Swelling, % of Ca2+-Induced Swelling", "setting": "rat heart mitochondria", "result": "— (“—” indicates activity absence for compounds (≤10%) in a particular test)"}
    ]},
    {"smiles": "C=C1CCCC2(C)CC3OC(=O)C(CNC4CC(OC5CC(O)(C(C)=O)Cc6c(O)c7c(c(O)c65)C(=O)c5c(OC)cccc5C7=O)OC(C)C4O)C3CC12", "note": "(stereo not drawn) [Compound 1b]", "values": [
      {"measurement": "Work of Respiratory Chain Complexes, % Decrease in OCR of Control, II", "setting": "[5]", "result": "— (“—” indicates activity absence for compounds (≤10%) in a particular test)"},
      {"measurement": "IC50", "setting": "MCF7 (breast cancer)", "result": "3.95 ± 0.03", "unit": "µM"},
      {"measurement": "IC50", "setting": "[1]", "result": "0.96 ± 0.02", "unit": "µM"},
      {"measurement": "IC50", "setting": "[2]", "result": "3.43 ± 0.04", "unit": "µM"},
      {"measurement": "IC50", "setting": "A549 (lung carcinoma)", "result": "0.93 ± 0.06", "unit": "µM"},
      {"measurement": "Work of Respiratory Chain Complexes, % Decrease in OCR of Control, IV", "setting": "[3]", "result": "— (“—” indicates activity absence for compounds (≤10%) in a particular test)"},
      {"measurement": "IC50", "setting": "[4]", "result": 0.28, "unit": "µM"},
      {"measurement": "Mitochondrial Swelling, % of Ca2+-Induced Swelling", "setting": "rat heart mitochondria", "result": "— (“—” indicates activity absence for compounds (≤10%) in a particular test)"}
    ]},
    {"smiles": "C=C1C(=O)O[C@@H]2C[C@@]3(C)CCC[C@H](C)C3=C[C@H]12", "note": "[Compound 2, alantolactone, reference compound]", "values": [
      {"measurement": "IC50", "setting": "MCF7 (breast cancer); Homo sapiens, MCF7, 72 h", "result": "13.2 ± 0.93", "unit": "µM"},
      {"measurement": "IC50", "setting": "[1]; Homo sapiens", "result": "5.48 ± 0.2", "unit": "µM"},
      {"measurement": "IC50", "setting": "[2]; Homo sapiens, HEK293, 72 h", "result": "36.47 ± 0.07", "unit": "µM"},
      {"measurement": "IC50", "setting": "A549 (lung carcinoma); Homo sapiens, A549, 72 h", "result": "36.7 ± 1.43", "unit": "µM"},
      {"measurement": "IC50", "setting": "[4]; Homo sapiens, HCT-116, 72 h", "result": "10.57 ± 0.04", "unit": "µM"}
    ]}
  ]
}
